Experimental findings from US5817818A, “Androstenones” (Glaxo Wellcome Inc., priority 1996, dated 1998) are described below.

Structures are written as SMILES. Where two headings read alike, the source gives them in different places.

Common to all, as to format: biochemical
Experiment [1] has as its target T1, human type 1 5α-reductase (Homo sapiens, UniProt P18405).
T1 construct: made in house; host or cells: Sf9 insect cells, recombinant baculovirus; microsomes
T1 sequence (P18405 1-259): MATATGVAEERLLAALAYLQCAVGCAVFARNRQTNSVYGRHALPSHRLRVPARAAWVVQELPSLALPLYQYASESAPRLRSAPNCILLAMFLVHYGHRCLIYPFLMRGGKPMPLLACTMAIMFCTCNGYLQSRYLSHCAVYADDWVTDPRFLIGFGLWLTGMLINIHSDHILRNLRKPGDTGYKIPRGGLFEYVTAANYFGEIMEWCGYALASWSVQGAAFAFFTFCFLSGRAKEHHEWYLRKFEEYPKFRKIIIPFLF
The experiment is described as follows: Inhibition of human type 1 steroid 5α-reductase (microsomes; testosterone to DHT conversion). The procedure: (§1) Enzyme activities may be determined using microsomes derived from: 1) prostate tissue from benign prostatic hyperplasia (BPH) patients; 2) recombinant baculovirus infected SF9 cells that express human type 1 5α-reductase; or 3) recombinant baculovirus infected SF9 cells that express human type 2 5α-reductase. Microsomes were prepared by homogenization of the tissue or cells, followed by differential centrifugation of the homogenate. Microsome extracts were incubated with varying concentrations of [1,2,6,7-^3 H]-testosterone, 1 mM NADPH, and varying amounts of the compounds of formula (I,) i.e. a test compound, in buffer containing a NADPH regenerating system capable of maintaining NADPH concentrations for a period of time within the range 0.5-240 minutes. Corresponding incubations were carried out with no test compound as a control study.
(§2) For type 1 IC50 measurements, assay components except testosterone were preincubated for 10 minutes at pH 7.0, and following the addition of 100 nM testosterone the assays were allowed to proceed for 10-120 minutes. For type 2 IC50 measurements, assay components except testosterone were preincubated for 20 minutes at pH 6.0, and following the addition of 8 nM testosterone the assays were allowed to proceed for 20-40 minutes. The percentage of conversion of testosterone to DHT in the presence of test compounds compared to the corresponding conversion in the control study was estimated using high performance liquid chromatography (HPLC) with radiochemical detection.

Experiment [2] has as its target T2, human type 2 5α-reductase (Homo sapiens, UniProt P31213).
T2 construct: made in house; host or cells: Sf9 insect cells, recombinant baculovirus; microsomes
T2 sequence (P31213 1-254): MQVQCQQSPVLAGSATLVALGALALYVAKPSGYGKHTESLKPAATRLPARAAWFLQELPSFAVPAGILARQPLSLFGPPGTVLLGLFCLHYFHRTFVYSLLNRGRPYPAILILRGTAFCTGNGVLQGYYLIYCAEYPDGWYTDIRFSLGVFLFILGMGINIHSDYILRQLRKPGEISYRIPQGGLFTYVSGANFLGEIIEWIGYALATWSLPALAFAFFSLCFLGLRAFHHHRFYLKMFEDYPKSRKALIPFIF
The experiment is described as follows: Inhibition of human type 2 steroid 5α-reductase (microsomes; testosterone to DHT conversion). To be noted: 20 min preincubation, pH 6.0, 8 nM testosterone, 20-40 min, 1 mM NADPH; read-out: IC50 Human Type 2 5AR. The method, then: as §1, §2

Another experiment concerns the target T3, Human Adrenal 3BHSD (Homo sapiens, UniProt P26439).
T3 construct: microsomes derived from human adrenal tissues; from tissue; host or cells: human adrenal tissue, microsomes
T3 sequence (P26439 1-372): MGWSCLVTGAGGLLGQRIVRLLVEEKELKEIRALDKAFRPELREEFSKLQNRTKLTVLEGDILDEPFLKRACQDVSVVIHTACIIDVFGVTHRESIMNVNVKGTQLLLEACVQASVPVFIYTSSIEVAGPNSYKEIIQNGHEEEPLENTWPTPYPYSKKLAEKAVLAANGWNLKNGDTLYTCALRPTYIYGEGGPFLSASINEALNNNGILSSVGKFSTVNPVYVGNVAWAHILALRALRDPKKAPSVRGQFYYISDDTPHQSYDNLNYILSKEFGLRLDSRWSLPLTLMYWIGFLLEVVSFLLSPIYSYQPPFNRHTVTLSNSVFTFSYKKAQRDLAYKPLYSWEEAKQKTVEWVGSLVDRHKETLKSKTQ
The experiment is described as follows: Inhibition of human adrenal 3β-hydroxy-Δ^5-steroid dehydrogenase/3-keto-Δ^5-steroid isomerase (3BHSD) (microsomes; DHEA to androstenedione conversion). The settings on record: 1 mM NAD+, pH 7.5, 1 to 60 minutes. The method, then:
Enzyme activities are measured using microsomes derived from human adrenal tissues. Microsomes were prepared by homogenization of the tissue followed by differential centrifugation of the homogenate. Microsome extracts were incubated with varying concentrations of dehydroepiandrosterone (DHEA), 1 mM NAD+, and varying amounts of the compounds of Formula (I), i.e. a test compound, in pH 7.5 buffer for a period of time within the range of 1 to 60 minutes. Corresponding incubations were carried out with no test compound as a control study. The percentage of conversion of DHEA to androstenedione in the presence of test compounds compared to the corresponding conversion in the control study was estimated using HPLC with radiochemical detection.

Setting [3] is: 10 min preincubation, pH 7.0, 100 nM testosterone, 10-120 min, 1 mM NADPH, read-out: IC50 Human Type 1 5AR.

Regarding `C[C@]12CCC(=O)N[C@@H]1CC[C@@H]1[C@@H]2CC[C@]2(C)[C@@H](C(=O)NC3(c4ccc(Cl)cc4)CCCC3)CC[C@@H]12` [Compound 1, 17β-N-1-(4-Chlorophenyl)cyclopentylcarbamoyl-4-aza-5α-androstan-3-one], the IC50 (usually the point on the concentration scale where inhibition reaches its midpoint) in experiment [1] (setting [3]) was 1 to 10 nM; in experiment [2], < 1 nM. For the same compound, the Ki (in general, the equilibrium dissociation constant of an inhibitor or competing ligand from its target) on Human Adrenal 3BHSD is > 1000 nM.
For the compound `CN1C(=O)CC[C@]2(C)[C@H]3CC[C@]4(C)[C@@H](C(=O)NC5(c6ccc(Cl)cc6)CCCC5)CC[C@H]4[C@@H]3CC[C@@H]12` [Compound 2, 17β-N-1-(4-Chlorophenyl)cyclopentylcarbamoyl-4-methyl-4-aza-5α-androstan-3-one], the IC50 in experiment [1] (setting [3]) and in experiment [2] was < 1 nM throughout. This compound gave a Ki at Human Adrenal 3BHSD of 10 to 10000 nM.
As for `C[C@]12C=CC(=O)N[C@@H]1CC[C@@H]1[C@@H]2CC[C@]2(C)[C@@H](C(=O)NC3(c4ccc(Cl)cc4)CCCC3)CC[C@@H]12` [Compound 3, 17β-N-1-(4-chlorophenyl)cyclopentylcarbamoyl-4-aza-5α-androst-1-en-3-one], the IC50 in experiment [1] and in experiment [2] was < 1 nM each time. In addition, at Human Adrenal 3BHSD, the Ki was > 1000 nM.
For the compound `CC(C)(C)c1ccc(C2(NC(=O)[C@H]3CC[C@H]4[C@@H]5CC[C@H]6NC(=O)C=C[C@]6(C)[C@H]5CC[C@]34C)CCCC2)cc1` [Compound 4, 17β-N-1-(4-t-Butylphenyl)cyclopentylcarbamoyl-4-aza-5α-androst-1-en-3-one], the values for the IC50 in experiment [1] (setting [3]) and in experiment [2] were 1 to 10 nM and < 1 nM, respectively. The inhibitory constant (Ki) on Human Adrenal 3BHSD was > 1000 nM.
As for `CC(C)(C)c1ccc(C2(NC(=O)[C@H]3CC[C@H]4[C@@H]5CC[C@H]6NC(=O)C=C[C@]6(C)[C@H]5CC[C@]34C)CCCCC2)cc1` [Compound 5, 17β-N-1-(4-t-Butylphenyl)cyclohexylcarbamoyl-4-aza-5α-androst-1-en-3-one], the IC50 was 1 to 10 nM in experiment [1] (setting [3]) and < 1 nM in experiment [2]. At Human Adrenal 3BHSD, the Ki is > 1000 nM.
Take `C[C@]12C=CC(=O)N[C@@H]1CC[C@@H]1[C@@H]2CC[C@]2(C)[C@@H](C(=O)NC3(c4ccc(Cl)cc4)CCCCC3)CC[C@@H]12` [Compound 6, 17β-N-1-(4-Chlorophenyl)cyclohexylcarbamoyl-4-aza-5α-androst-1-en-3-one]: the IC50 in experiment [1] (setting [3]) was 1 to 10 nM; in experiment [2], < 1 nM. Besides, the Ki at Human Adrenal 3BHSD is > 1000 nM.
Taken in the same sequence, the figures for `C[C@]12C=CC(=O)N[C@@H]1CC[C@@H]1[C@@H]2CC[C@]2(C)[C@@H](C(=O)NC3(c4ccc(C(F)(F)F)cc4)CCCC3)CC[C@@H]12` [Compound 7, 17β-N-1-(4-Trifluoromethylphenyl)cyclopentylcarbamoyl-4-aza-5α-androst-1-en-3-one] were 1 to 10 nM, < 1 nM and > 1000 nM.
For `COc1ccc(C2(NC(=O)[C@H]3CC[C@H]4[C@@H]5CC[C@H]6NC(=O)C=C[C@]6(C)[C@H]5CC[C@]34C)CCCC2)cc1` [Compound 8, 17β-N-1-(4-Methoxyphenyl)cyclopentylcarbamoyl-4-aza-5α-androst-1-en-3-one], the IC50 is 1 to 10 nM in experiment [1] (setting [3]) and < 1 nM in experiment [2]. On Human Adrenal 3BHSD, the Ki was > 1000 nM.
Taken in the same sequence, the figures for `C[C@]12C=CC(=O)N[C@@H]1CC[C@@H]1[C@@H]2CC[C@]2(C)[C@@H](C(=O)NC3(c4ccc(F)cc4)CCCC3)CC[C@@H]12` [Compound 9, 17β-N-1-(4-Fluorophenyl)cyclopentylcarbamoyl-4-aza-5α-androst-1-en-3-one] were 1 to 10 nM, < 1 nM and > 1000 nM.
Taken in the same sequence, the figures for `C[C@]12C=CC(=O)N[C@@H]1CC[C@@H]1[C@@H]2CC[C@]2(C)[C@@H](C(=O)NC3(c4ccc(F)cc4)CCCCC3)CC[C@@H]12` [Compound 10, 17β-N-1-(4-Fluorophenyl)cyclohexylcarbamoyl-4-aza-5α-androst-1-en-3-one] were 1 to 10 nM, < 1 nM and > 1000 nM.
Taken in the same sequence, the figures for `COc1ccc(C2(NC(=O)[C@H]3CC[C@H]4[C@@H]5CC[C@H]6NC(=O)C=C[C@]6(C)[C@H]5CC[C@]34C)CCCCC2)cc1` [Compound 11, 17β-N-1-(4-Methoxyphenyl)cyclohexylcarbamoyl-4-aza-5α-androst-1-en-3-one] were 1 to 10 nM, < 1 nM and > 1000 nM.
With `C[C@]12C=CC(=O)N[C@@H]1CC[C@@H]1[C@@H]2CC[C@]2(C)[C@@H](C(=O)NC3(c4ccc5c(c4)OCO5)CCCCC3)CC[C@@H]12` [Compound 12, 17β-N-1-(3,4-Methylenedioxyphenyl)cyclohexylcarbamoyl-4-aza-5α-androst-1-en-3-one], the IC50 is 10 to 10000 nM in experiment [1] (setting [3]) and < 1 nM in experiment [2]. This compound also gave a Ki at Human Adrenal 3BHSD of 10 to 10000 nM.
Regarding `CC(C)(C)c1ccc(C2(NC(=O)[C@H]3CC[C@H]4[C@@H]5CC[C@H]6NC(=O)C=C[C@]6(C)[C@H]5CC[C@]34C)CCCCCC2)cc1` [Compound 13, 17β-N-1-(4-t-Butylphenyl)cycloheptylcarbamoyl-4-aza-5α-androst-1-en-3-one], the IC50 in experiment [1] (setting [3]) is 1 to 10 nM; in experiment [2], < 1 nM. In addition, the Ki at Human Adrenal 3BHSD was > 1000 nM.
Regarding `CC(C)(C)c1ccc(C2(NC(=O)[C@H]3CC[C@H]4[C@@H]5CC[C@H]6NC(=O)C=C[C@]6(C)[C@H]5CC[C@]34C)CCOCC2)cc1` [Compound 14, 17β-N-4-(4-t-Butylphenyl)tetrahydropyranylcarbamoyl-4-aza-5α-androst-1-en-3-one], the IC50 in experiment [1] (setting [3]) is 1 to 10 nM; in experiment [2] it was < 1 nM. For the same compound, the Ki at Human Adrenal 3BHSD was > 1000 nM.
On to `C[C@]12C=CC(=O)N[C@@H]1CC[C@@H]1[C@@H]2CC[C@]2(C)[C@@H](C(=O)NC3(c4ccc(Cl)cc4Cl)CC3)CC[C@@H]12` [Compound 15, 17β-N-1-(2,4-Dichlorophenyl)cyclopropylcarbamoyl-4-aza-5α-androst-1-en-3-one], for which the IC50 in experiment [1] (setting [3]) is 1 to 10 nM; in experiment [2], < 1 nM. For the same compound, the Ki on Human Adrenal 3BHSD is > 1000 nM.
`CCC1(CC)CC1(NC(=O)[C@H]1CC[C@H]2[C@@H]3CC[C@H]4NC(=O)C=C[C@]4(C)[C@H]3CC[C@]12C)c1ccc(C(F)(F)F)cc1` (stereo partly drawn) [Compound 16, 17β-N-1-(4-Trifluoromethylphenyl)-2,2-diethylcyclopropylcarbamoyl-4-aza-5α-androst-1-en-3-one]: the half-inhibitory concentration (IC50) is 1 to 10 nM in experiment [1] (setting [3]) and < 1 nM in experiment [2]. Also, at Human Adrenal 3BHSD, the Ki is > 1000 nM.
Taken in the same sequence, the figures for `CC1(C)CCC(NC(=O)[C@H]2CC[C@H]3[C@@H]4CC[C@H]5NC(=O)C=C[C@]5(C)[C@H]4CC[C@]23C)(c2ccc(C(C)(C)C)cc2)CC1` [Compound 17, 17β-N-1-(4-t-Butylphenyl)-4,4-dimethylcyclohexylcarbamoyl-4-aza-5α-androst-1-en-3-one] were < 1 nM, < 1 nM and > 1000 nM.
Taken in the same sequence, the figures for `CC(C)(C)c1ccc(C2(NC(=O)[C@H]3CC[C@H]4[C@@H]5CC[C@H]6NC(=O)C=C[C@]6(C)[C@H]5CC[C@]34C)CCC(C(C)(C)C)CC2)cc1` (stereo partly drawn) [Compound 18, 17β-N-1-(4-t-Butylphenyl)-4-t-Butylcyclohexylcarbamoyl-4-aza-5α-androst-1-en-3-one] were 1 to 10 nM, < 1 nM and > 1000 nM.
